Test results published in patent US20230085307A1, “PYRIDAZINONE COMPOUND AND HERBICIDE” (NISSAN CHEMICAL CORPORATION, priority 2019, published 2023).

Legend:
southern crabgrass [1] = test: Test Example 5: herbicidal effect by foliage application, plastic box (Table 20, symbol F); format: in vivo, southern crabgrass (Digitaria ciliaris); details: foliage application, three weeks after application
How it was run: (§1)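 Post-emergence foliar test in sterilized diluvial soil. Compound applied as water-diluted emulsion at a predetermined rate to 14-day-old plants; evaluation at three weeks.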

southern crabgrass [2] = test: Test Example 4: herbicidal effect by soil treatment (Table 19, symbol F); format: in vivo, southern crabgrass (Digitaria ciliaris)
How it was run: (§2)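 Scoring uses the grading scale of an earlier test, three weeks post-application. Treatment consists of spraying a diluted emulsion formulation across the surface of sterilized diluvial soil in which seeds are buried near 1.5 cm deep; boxes are kept in a greenhouse between 25° C. and 30° C.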

chickweed [3] = test: Test Example 5: herbicidal effect by foliage application, plastic box (Table 20, symbol P); format: in vivo, common chickweed (Stellaria media); details: foliage application, three weeks after application
How it was run: as §1

redroot pigweed [4] = test: Test Example 5: herbicidal effect by foliage application, plastic box (Table 20, symbol N); format: in vivo, redroot pigweed (Amaranthus retroflexus); details: foliage application, three weeks after application
How it was run: as §1

Italian ryegrass [5] = test: Test Example 4: herbicidal effect by soil treatment (Table 19, symbol K); format: in vivo, Italian ryegrass (Lolium multiflorum)
How it was run: as §2

redroot pigweed [6] = test: Test Example 4: herbicidal effect by soil treatment (Table 19, symbol N); format: in vivo, redroot pigweed (Amaranthus retroflexus)
How it was run: as §2

barnyard grass [7] = test: Test Example 4: herbicidal effect by soil treatment (Table 19, symbol H); format: in vivo, barnyard grass (Echinochloa crus-galli)
How it was run: as §2

windgrass [8] = test: Test Example 5: herbicidal effect by foliage application, plastic box (Table 20, symbol L); format: in vivo, windgrass (Apera spica-venti); details: foliage application, three weeks after application
How it was run: as §1

velvetleaf [9] = test: Test Example 4: herbicidal effect by soil treatment (Table 19, symbol M); format: in vivo, velvetleaf (Abutilon theophrasti)
How it was run: as §2

velvetleaf [10] = test: Test Example 5: herbicidal effect by foliage application, plastic box (Table 20, symbol M); format: in vivo, velvetleaf (Abutilon theophrasti); details: foliage application, three weeks after application
How it was run: as §1

lambsquarters [11] = test: Test Example 5: herbicidal effect by foliage application, plastic box (Table 20, symbol O); format: in vivo, lambsquarters (Chenopodium album); details: foliage application, three weeks after application
How it was run: as §1

barnyard grass [12] = test: Test Example 5: herbicidal effect by foliage application, plastic box (Table 20, symbol H); format: in vivo, barnyard grass (Echinochloa crus-galli); details: foliage application, three weeks after application
How it was run: as §1

Italian ryegrass [13] = test: Test Example 5: herbicidal effect by foliage application, plastic box (Table 20, symbol K); format: in vivo, Italian ryegrass (Lolium multiflorum); details: foliage application, three weeks after application
How it was run: as §1

blackgrass [14] = test: Test Example 4: herbicidal effect by soil treatment (Table 19, symbol J); format: in vivo, blackgrass (Alopecurus myosuroides)
How it was run: as §2

green foxtail [15] = test: Test Example 4: herbicidal effect by soil treatment (Table 19, symbol G); format: in vivo, green foxtail (Setaria viridis)
How it was run: as §2

blackgrass [16] = test: Test Example 5: herbicidal effect by foliage application, plastic box (Table 20, symbol J); format: in vivo, blackgrass (Alopecurus myosuroides); details: foliage application, three weeks after application
How it was run: as §1

chickweed [17] = test: Test Example 4: herbicidal effect by soil treatment (Table 19, symbol P); format: in vivo, common chickweed (Stellaria media)
How it was run: as §2

wild oat [18] = test: Test Example 4: herbicidal effect by soil treatment (Table 19, symbol I); format: in vivo, wild oat (Avena fatua)
How it was run: as §2

persian speedwell [19] = test: Test Example 4: herbicidal effect by soil treatment (Table 19, symbol R); format: in vivo, Persian speedwell (Veronica persica)
How it was run: as §2

persian speedwell [20] = test: Test Example 5: herbicidal effect by foliage application, plastic box (Table 20, symbol R); format: in vivo, Persian speedwell (Veronica persica); details: foliage application, three weeks after application
How it was run: as §1

wild oat [21] = test: Test Example 5: herbicidal effect by foliage application, plastic box (Table 20, symbol I); format: in vivo, wild oat (Avena fatua); details: foliage application, three weeks after application
How it was run: as §1

windgrass [22] = test: Test Example 4: herbicidal effect by soil treatment (Table 19, symbol L); format: in vivo, windgrass (Apera spica-venti)
How it was run: as §2

lambsquarters [23] = test: Test Example 4: herbicidal effect by soil treatment (Table 19, symbol O); format: in vivo, lambsquarters (Chenopodium album)
How it was run: as §2

green foxtail [24] = test: Test Example 5: herbicidal effect by foliage application, plastic box (Table 20, symbol G); format: in vivo, green foxtail (Setaria viridis); details: foliage application, three weeks after application
How it was run: as §1

CCCC(=O)Oc1c(OC)nn(C)c(=O)c1-c1c(-c2ccc(OC)cc2OC)sc2ccccc12 [1-181]
F: southern crabgrass, herbicidal effect (southern crabgrass [1]; AAH 320 g/ha): 0 (Herbicidal rate of 5% or less (almost no effect)) | F: southern crabgrass, herbicidal effect rating (southern crabgrass [2]; AAH 320 g/ha): 0 (Herbicidal rate of 5% or less (almost no effect)) | P: chickweed, herbicidal effect (chickweed [3]; AAH 320 g/ha): 4 (Herbicidal rate of 70% or more and less than 90%) | N: redroot pigweed, herbicidal effect (redroot pigweed [4]; AAH 320 g/ha): 0 (Herbicidal rate of 5% or less (almost no effect)) | K: Italian ryegrass, herbicidal effect rating (Italian ryegrass [5]; AAH 320 g/ha): 0 (Herbicidal rate of 5% or less (almost no effect)) | N: redroot pigweed, herbicidal effect rating (redroot pigweed [6]; AAH 320 g/ha): 0 (Herbicidal rate of 5% or less (almost no effect)) | H: barnyard grass, herbicidal effect rating (barnyard grass [7]; AAH 320 g/ha): 0 (Herbicidal rate of 5% or less (almost no effect)) | L: windgrass, herbicidal effect (windgrass [8]; AAH 320 g/ha): 0 (Herbicidal rate of 5% or less (almost no effect)) | M: velvetleaf, herbicidal effect rating (velvetleaf [9]; AAH 320 g/ha): 0 (Herbicidal rate of 5% or less (almost no effect)) | M: velvetleaf, herbicidal effect (velvetleaf [10]; AAH 320 g/ha): 0 (Herbicidal rate of 5% or less (almost no effect)) | O: lambsquarters, herbicidal effect (lambsquarters [11]; AAH 320 g/ha): 1 (Herbicidal rate of 5% or more and less than 20%) | H: barnyard grass, herbicidal effect (barnyard grass [12]; AAH 320 g/ha): 0 (Herbicidal rate of 5% or less (almost no effect)) | K: Italian ryegrass, herbicidal effect (Italian ryegrass [13]; AAH 320 g/ha): 0 (Herbicidal rate of 5% or less (almost no effect)) | J: blackgrass, herbicidal effect rating (blackgrass [14]; AAH 320 g/ha): 0 (Herbicidal rate of 5% or less (almost no effect)) | G: green foxtail, herbicidal effect rating (green foxtail [15]; AAH 320 g/ha): 0 (Herbicidal rate of 5% or less (almost no effect)) | J: blackgrass, herbicidal effect (blackgrass [16]; AAH 320 g/ha): 0 (Herbicidal rate of 5% or less (almost no effect)) | P: chickweed, herbicidal effect rating (chickweed [17]; AAH 320 g/ha): 1 (Herbicidal rate of 5% or more and less than 20%) | I: wild oat, herbicidal effect rating (wild oat [18]; AAH 320 g/ha): 0 (Herbicidal rate of 5% or less (almost no effect)) | R: persian speedwell, herbicidal effect rating (persian speedwell [19]; AAH 320 g/ha): 1 (Herbicidal rate of 5% or more and less than 20%) | R: persian speedwell, herbicidal effect (persian speedwell [20]; AAH 320 g/ha): 1 (Herbicidal rate of 5% or more and less than 20%) | I: wild oat, herbicidal effect (wild oat [21]; AAH 320 g/ha): 0 (Herbicidal rate of 5% or less (almost no effect)) | L: windgrass, herbicidal effect rating (windgrass [22]; AAH 320 g/ha): 0 (Herbicidal rate of 5% or less (almost no effect)) | O: lambsquarters, herbicidal effect rating (lambsquarters [23]; AAH 320 g/ha): 0 (Herbicidal rate of 5% or less (almost no effect)) | G: green foxtail, herbicidal effect (green foxtail [24]; AAH 320 g/ha): 0 (Herbicidal rate of 5% or less (almost no effect))

COc1nn(C)c(=O)c(-c2c(-c3cc(F)c(F)c(F)c3)sc3ccccc23)c1O [1-186]
F: southern crabgrass, herbicidal effect (southern crabgrass [1]; AAH 283 g/ha): 0 (Herbicidal rate of 5% or less (almost no effect)) | F: southern crabgrass, herbicidal effect rating (southern crabgrass [2]; AAH 283 g/ha): 0 (Herbicidal rate of 5% or less (almost no effect)) | P: chickweed, herbicidal effect (chickweed [3]; AAH 283 g/ha): 5 (Herbicidal rate of 90% or more (almost completely withered)) | N: redroot pigweed, herbicidal effect (redroot pigweed [4]; AAH 283 g/ha): 4 (Herbicidal rate of 70% or more and less than 90%) | K: Italian ryegrass, herbicidal effect rating (Italian ryegrass [5]; AAH 283 g/ha): 0 (Herbicidal rate of 5% or less (almost no effect)) | N: redroot pigweed, herbicidal effect rating (redroot pigweed [6]; AAH 283 g/ha): 2 (Herbicidal rate of 20% or more and less than 40%) | H: barnyard grass, herbicidal effect rating (barnyard grass [7]; AAH 283 g/ha): 0 (Herbicidal rate of 5% or less (almost no effect)) | L: windgrass, herbicidal effect (windgrass [8]; AAH 283 g/ha): 0 (Herbicidal rate of 5% or less (almost no effect)) | M: velvetleaf, herbicidal effect rating (velvetleaf [9]; AAH 283 g/ha): 0 (Herbicidal rate of 5% or less (almost no effect)) | M: velvetleaf, herbicidal effect (velvetleaf [10]; AAH 283 g/ha): 3 (Herbicidal rate of 40% or more and less than 70%) | O: lambsquarters, herbicidal effect (lambsquarters [11]; AAH 283 g/ha): 2 (Herbicidal rate of 20% or more and less than 40%) | H: barnyard grass, herbicidal effect (barnyard grass [12]; AAH 283 g/ha): 0 (Herbicidal rate of 5% or less (almost no effect)) | K: Italian ryegrass, herbicidal effect (Italian ryegrass [13]; AAH 283 g/ha): 0 (Herbicidal rate of 5% or less (almost no effect)) | J: blackgrass, herbicidal effect rating (blackgrass [14]; AAH 283 g/ha): 0 (Herbicidal rate of 5% or less (almost no effect)) | G: green foxtail, herbicidal effect rating (green foxtail [15]; AAH 283 g/ha): 0 (Herbicidal rate of 5% or less (almost no effect)) | J: blackgrass, herbicidal effect (blackgrass [16]; AAH 283 g/ha): 0 (Herbicidal rate of 5% or less (almost no effect)) | P: chickweed, herbicidal effect rating (chickweed [17]; AAH 283 g/ha): 5 (Herbicidal rate of 90% or more (almost completely withered)) | I: wild oat, herbicidal effect rating (wild oat [18]; AAH 283 g/ha): 0 (Herbicidal rate of 5% or less (almost no effect)) | R: persian speedwell, herbicidal effect rating (persian speedwell [19]; AAH 283 g/ha): 4 (Herbicidal rate of 70% or more and less than 90%) | R: persian speedwell, herbicidal effect (persian speedwell [20]; AAH 283 g/ha): 5 (Herbicidal rate of 90% or more (almost completely withered)) | I: wild oat, herbicidal effect (wild oat [21]; AAH 283 g/ha): 0 (Herbicidal rate of 5% or less (almost no effect)) | L: windgrass, herbicidal effect rating (windgrass [22]; AAH 283 g/ha): 0 (Herbicidal rate of 5% or less (almost no effect)) | O: lambsquarters, herbicidal effect rating (lambsquarters [23]; AAH 283 g/ha): 0 (Herbicidal rate of 5% or less (almost no effect)) | G: green foxtail, herbicidal effect (green foxtail [24]; AAH 283 g/ha): 0 (Herbicidal rate of 5% or less (almost no effect))
